Source: patent US20240174649A1, “CULLIN-RING E3 UBIQUITIN LIGASE 4 INHIBITOR COMPOUNDS AND METHODS OF THEIR USE” (ICAHN SCHOOL OF MEDICINE AT MOUNT SINAI, priority 2021, published 2024)
Blank lines part the entries; values can stand above or below the compound they belong to.

Columns and labels:
E3 (CUL4) = E3 (CUL4) (Homo sapiens (Human), UniProt Q13619); test: E3 (CUL4) inhibition (Table 1); assay type: biochemical
Description: The reaction was incubated for 5 min at 37° C. […] The reaction was incubated for 5 min at room temperature. In the second step (chase), the completed Cdc34b-Ub thiol ester reaction mixture was combined with one third of the completed mono-ubiquitination mixture. The final volume was adjusted to 10 μl with a mix that contained 50 mM Tris-HCl (pH 7.4), 0.5 mM DTT, 0.1 mg/ml of BSA, 5 mM MgCl2, and 2 mM ATP. Compounds were added where indicated. The chase reaction was incubated for 10 min at 37° C. The reaction products were separated by 4-20% SDS-polyacrylamide gel electrophoresis. The reaction scheme was identical to the one described above for FIGS. 12A-B. […] The reaction products, separated by SDS-PAGE, were visualized and analyzed by phospho-imaging using Typhoon 9500 scanner.

cancer cells = test: Apoptosis, Annexin V flow cytometry; assay type: cell-based; settings: Table 1
Description: Cells (5×10^4) were seeded 24 hours before compound treatment. Compound was added to the culture media and cells were cultured with the compound for 48 hours. The treated cells were then transferred into 5 ml flow cytometry tubes and the well was washed once with PBS to collect any remaining cells. The cells were then pelleted at 500×g for 5 min with a Beckman CS-6KR centrifuge at 4° C. After removal of supernatant, the cells pellet was washed with Annexin V binding buffer (10 mM Hepes-NaOH, pH 7.4, 150 mM NaCl, 5 mM KCl, 1 mM MgCl2, and 1.8 mM CaCl2). Cells were pelleted once again and incubated in the dark with Annexin V-FITC (2 μg/ml) in binding buffer for 5 min then analyzed using LSRFortessa flow cytometer (BD).

E3 (CUL1) = E3 (CUL1) (Homo sapiens (Human), UniProt Q13616); test: E3 (CUL1) inhibition (Table 1); assay type: biochemical
Sequence of E3 (CUL1) (Q13616 whole entry): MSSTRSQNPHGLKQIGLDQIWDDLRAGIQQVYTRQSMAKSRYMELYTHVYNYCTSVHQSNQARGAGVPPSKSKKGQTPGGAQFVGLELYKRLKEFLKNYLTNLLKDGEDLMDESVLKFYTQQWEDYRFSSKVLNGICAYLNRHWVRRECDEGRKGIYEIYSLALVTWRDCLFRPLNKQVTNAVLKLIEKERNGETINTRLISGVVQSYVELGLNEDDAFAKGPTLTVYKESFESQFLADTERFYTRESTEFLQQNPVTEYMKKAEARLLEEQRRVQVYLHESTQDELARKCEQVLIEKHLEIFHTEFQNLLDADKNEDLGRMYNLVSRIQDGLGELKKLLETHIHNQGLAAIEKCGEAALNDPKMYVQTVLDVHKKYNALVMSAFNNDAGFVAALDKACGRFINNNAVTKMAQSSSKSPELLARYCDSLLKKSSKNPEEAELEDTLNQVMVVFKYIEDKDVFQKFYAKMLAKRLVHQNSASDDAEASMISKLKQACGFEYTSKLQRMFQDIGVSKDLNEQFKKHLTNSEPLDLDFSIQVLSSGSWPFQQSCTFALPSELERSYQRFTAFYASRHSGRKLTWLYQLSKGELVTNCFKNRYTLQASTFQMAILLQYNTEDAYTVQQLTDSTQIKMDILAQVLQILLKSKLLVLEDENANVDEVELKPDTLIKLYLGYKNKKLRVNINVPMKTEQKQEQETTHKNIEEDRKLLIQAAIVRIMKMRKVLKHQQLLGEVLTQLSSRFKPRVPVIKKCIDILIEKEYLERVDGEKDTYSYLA
Sequence of E3 (CUL1) (P62877 whole entry partner): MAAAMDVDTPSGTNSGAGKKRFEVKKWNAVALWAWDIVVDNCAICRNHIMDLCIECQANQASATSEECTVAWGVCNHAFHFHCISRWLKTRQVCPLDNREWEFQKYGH
Description: The reaction mixture (15 μl) was assembled onto a 384-well microtiter plate. […] ATP (0.66 mM) was then added to the mix followed by a brief centrifugation to settle down the mixture. The resulting plate was incubated at 30° C. in the Synergy-H1 reader and the fluorescence signal was monitored. Ubiquitination was quantified based on the ratio of acceptor:donor fluorescence (excitation 515 nm; donor emission 570 nm, acceptor emission 670 nm).

Sequence of E3 (CUL4) (Q13619 whole entry): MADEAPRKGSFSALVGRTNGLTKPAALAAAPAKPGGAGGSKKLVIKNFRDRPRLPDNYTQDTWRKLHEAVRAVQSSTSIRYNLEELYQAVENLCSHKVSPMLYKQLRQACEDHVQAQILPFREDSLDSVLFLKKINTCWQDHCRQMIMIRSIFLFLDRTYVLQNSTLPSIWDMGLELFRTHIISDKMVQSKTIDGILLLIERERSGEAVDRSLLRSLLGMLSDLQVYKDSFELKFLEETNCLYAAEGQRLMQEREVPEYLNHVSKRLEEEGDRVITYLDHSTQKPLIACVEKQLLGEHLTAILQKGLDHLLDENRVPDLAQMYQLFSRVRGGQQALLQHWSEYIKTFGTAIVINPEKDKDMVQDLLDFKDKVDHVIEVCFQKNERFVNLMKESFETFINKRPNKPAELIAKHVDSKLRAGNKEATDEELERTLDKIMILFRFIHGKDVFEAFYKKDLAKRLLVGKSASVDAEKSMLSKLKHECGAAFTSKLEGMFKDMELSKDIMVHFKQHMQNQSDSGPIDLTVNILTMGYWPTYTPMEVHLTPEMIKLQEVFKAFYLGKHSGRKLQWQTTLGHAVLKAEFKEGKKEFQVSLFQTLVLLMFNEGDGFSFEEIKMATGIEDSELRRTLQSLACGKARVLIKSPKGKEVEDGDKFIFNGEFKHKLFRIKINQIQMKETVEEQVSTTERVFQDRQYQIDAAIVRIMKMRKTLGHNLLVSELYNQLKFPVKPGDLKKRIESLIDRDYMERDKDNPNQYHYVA
Sequence of E3 (CUL4) (P62877 whole entry partner): as the sequence (P62877 whole entry partner) above

Compound: COc1ccc2c(=O)c(-c3cnn(Cc4ccc(Cl)cc4)c3)c(C(F)(F)F)oc2c1OC [MSSM-RJD-MM-001, 3-(1-(4-chlorobenzyl)-1H-pyrazol-4-yl)-7,8-dimethoxy-2-(trifluoromethyl)-4H-chromen-4-one]
EC50 (E3 (CUL1)): > 100 µM
EC50 (E3 (CUL4)): > 10 µM
EC50 (cancer cells): > 20 µM

Compound: COc1ccc2c(=O)c(-c3cnn(Cc4ccc(F)cc4)c3)c(C(F)(F)F)oc2c1OC [MSSM-RJD-MM-010, 3-(1-(4-fluorobenzyl)-1H-pyrazol-4-yl)-7,8-dimethoxy-2-(trifluoromethyl)-4H-chromen-4-one]
EC50 (E3 (CUL1)): > 100 µM
EC50 (E3 (CUL4)): > 10 µM
EC50 (cancer cells): > 20 µM

Compound: COc1ccc2c(=O)c(-c3cnn(Cc4cc(F)ccc4C(F)(F)F)c3)c(C(F)(F)F)oc2c1OC [MSSM-RJD-MM-021, 3-(1-(5-fluoro-2-(trifluoromethyl)benzyl)-1H-pyrazol-4-yl)-7,8-dimethoxy-2-(trifluoromethyl)-4H-chromen-4-one]
EC50 (E3 (CUL1)): 66 µM
EC50 (E3 (CUL4)): > 10 µM
EC50 (cancer cells): ~20 µM

Compound: O=c1ccoc2c(O)c(O)ccc12 [KH-3-49]
EC50 (E3 (CUL1)): 11 µM
EC50 (E3 (CUL4)): > 75 µM

Compound: CC(=O)Oc1ccc2c(=O)cc(C(F)(F)F)oc2c1OC(C)=O [KH-3-12]
EC50 (E3 (CUL1)): 32 µM
EC50 (E3 (CUL4)): > 75 µM

Compound: O=c1c(-c2cnn(Cc3cc(C(F)(F)F)ccc3F)c2)c(C(F)(F)F)oc2c(O)c(O)ccc12 [MSSM-RJD-MM-026, 3-(1-(2-fluoro-5-(trifluoromethyl)benzyl)-1H-pyrazol-4-yl)-7,8-dihydroxy-2-(trifluoromethyl)-4H-chromen-4-one]
EC50 (E3 (CUL1)): 6.5 µM
EC50 (E3 (CUL4)): > 10 µM
EC50 (cancer cells): > 20 µM

Compound: COc1ccc2c(=O)c(-c3cnn(Cc4ccccc4F)c3)c(C(F)(F)F)oc2c1OC [MSSM-RJD-MM-016, 3-(1-(2-fluorobenzyl)-1H-pyrazol-4-yl)-7,8-dimethoxy-2-(trifluoromethyl)-4H-chromen-4-one]
EC50 (E3 (CUL1)): > 100 µM
EC50 (E3 (CUL4)): > 10 µM
EC50 (cancer cells): > 20 µM

Compound: COc1ccc2c(=O)c(-c3cnn(Cc4cccc(C(F)(F)F)c4Cl)c3)c(C(F)(F)F)oc2c1OC [MSSM-RJD-MM-020]
EC50 (E3 (CUL1)): 53 µM
EC50 (E3 (CUL4)): > 10 µM
EC50 (cancer cells): > 20 µM

Compound: CCCn1cc(-c2c(C(F)(F)F)oc3c(OC)c(OC)ccc3c2=O)cn1 [MSSM-RJD-MM-004]
EC50 (E3 (CUL1)): > 100 µM
EC50 (E3 (CUL4)): > 10 µM
EC50 (cancer cells): > 20 µM

Compound: COc1cccc(Cn2cc(-c3c(C(F)(F)F)oc4c(OC)c(OC)ccc4c3=O)cn2)c1 [MSSM-RJD-MM-018, 7,8-dimethoxy-3-(1-(3-methoxybenzyl)-1H-pyrazol-4-yl)-2-(trifluoromethyl)-4H-chromen-4-one]
EC50 (E3 (CUL1)): > 100 µM
EC50 (E3 (CUL4)): > 10 µM

Compound: O=c1c(-c2cnn(Cc3cc(C(F)(F)F)ccc3Cl)c2)c(C(F)(F)F)oc2c(O)c(O)ccc12 [MSSM-RJD-MM-027, 3-(1-(2-chloro-5-(trifluoromethyl)benzyl)-1H-pyrazol-4-yl)-7,8-dihydroxy-2-(trifluoromethyl)-4H-chromen-4-one]
EC50 (E3 (CUL1)): 5.6 µM
EC50 (E3 (CUL4)): > 10 µM
EC50 (cancer cells): 10 to 20 µM

Compound: O=c1cc(C(F)(F)F)oc2c(O)c(O)ccc12 [KH-3-50]
EC50 (E3 (CUL1)): 4.9 µM
E3 (CUL4) Inhibition EC50 (E3 (CUL4)): Inactive

Compound: COc1ccc2c(=O)c(-c3cnn(Cc4cccc(Cl)c4)c3)c(C(F)(F)F)oc2c1OC [MSSM-RJD-MM-017, 3-(1-(3-chlorobenzyl)-1H-pyrazol-4-yl)-7,8-dimethoxy-2-(trifluoromethyl)-4H-chromen-4-one]
EC50 (E3 (CUL1)): 82 µM
EC50 (E3 (CUL4)): > 10 µM

Compound: COc1ccc2c(=O)c(-c3cnn(C(C)C)c3)c(C(F)(F)F)oc2c1OC [MSSM-RJD-MM-003, 3-(1-isopropyl-1H-pyrazol-4-yl)-7,8-dimethoxy-2-(trifluoromethyl)-4H-chromen-4-one]
EC50 (E3 (CUL1)): > 100 µM
EC50 (E3 (CUL4)): > 10 µM
EC50 (cancer cells): > 20 µM

Compound: COc1ccc2c(=O)c(-c3cnn(Cc4ccc(C(F)(F)F)cc4)c3)c(C(F)(F)F)oc2c1OC [MSSM-RJD-MM-011, 7,8-dimethoxy-2-(trifluoromethyl)-3-(1-(4-(trifluoromethyl)benzyl)-1H-pyrazol-4-yl)-4H-chromen-4-one]
EC50 (E3 (CUL1)): > 100 µM
EC50 (E3 (CUL4)): > 10 µM
EC50 (cancer cells): > 20 µM

Compound: COc1ccc2c(=O)c(-c3cnn(Cc4cccc(C)c4)c3)c(C(F)(F)F)oc2c1OC [MSSM-RJD-MM-019]
EC50 (E3 (CUL1)): 92 µM
EC50 (E3 (CUL4)): > 10 µM

The next lines start with the values.

EC50 (E3 (CUL4)): ~14 µM
EC50 (cancer cells): 19 µM
Compound: Cc1cccc(-n2cc(-c3c(C(F)(F)F)oc4c(O)c(O)ccc4c3=O)cn2)c1 [KH-4-79]

EC50 (E3 (CUL4)): > 14 µM
Apoptosis EC50 (cancer cells): Inactive
Compound: Nc1cccc(-n2cc(-c3c(C(F)(F)F)oc4c(O)c(O)ccc4c3=O)cn2)c1 [KH-4-78]

EC50 (E3 (CUL1)): 3.4 µM
EC50 (E3 (CUL4)): ~20 µM
EC50 (cancer cells): 21 µM
Compound: O=c1c(-c2ccnn2Cc2ccccc2)c(C(F)(F)F)oc2c(O)c(O)ccc12 [KH-3-160A]

E3 (CUL4) Inhibition EC50 (E3 (CUL4)): Inactive
Apoptosis EC50 (cancer cells): Inactive
Compound: O=c1c(-c2cnn(-c3ccccc3)c2)c(C(F)(F)F)oc2c(OS(=O)(=O)C(F)(F)F)c(O)ccc12 [KH-4-136]

EC50 (E3 (CUL1)): 4 µM
EC50 (E3 (CUL4)): > 10 µM
EC50 (cancer cells): > 20 µM
Compound: CCCn1cc(-c2c(C(F)(F)F)oc3c(O)c(O)ccc3c2=O)cn1 [MSSM-RJD-MM-008, 7,8-dihydroxy-3-(1-propyl-1H-pyrazol-4-yl)-2-(trifluoromethyl)-4H-chromen-4-one]

EC50 (E3 (CUL1)): 8 µM
EC50 (E3 (CUL4)): > 14 µM
Compound: O=c1c(-c2cnn(-c3ccc(F)cc3)c2)c(C(F)(F)F)oc2c(O)c(O)ccc12 [KH-3-174]

E3 (CUL1) Inhibition EC50 (E3 (CUL1)): Inactive
E3 (CUL4) Inhibition EC50 (E3 (CUL4)): Inactive
Compound: O=c1c(-c2cnn(-c3cccnc3)c2)c(C(F)(F)F)oc2c(O)c(O)ccc12 [KH-4-67]

EC50 (E3 (CUL4)): > 14 µM
EC50 (cancer cells): 26 µM
Compound: O=c1c(-c2cnn(-c3ccccc3Cl)c2)c(C(F)(F)F)oc2c(O)c(O)ccc12 [KH-4-88]

EC50 (E3 (CUL1)): 8 µM
EC50 (E3 (CUL4)): > 14 µM
Compound: O=c1c(-c2cnn(-c3cccc(C(F)(F)F)c3)c2)c(C(F)(F)F)oc2c(O)c(O)ccc12 [KH-4-65]

EC50 (E3 (CUL4)): ~10 µM
EC50 (cancer cells): 6 µM
Compound: O=c1c(-c2cnn(-c3cc(Cl)cc(Cl)c3)c2)c(C(F)(F)F)oc2c(O)c(O)ccc12 [KH-4-116]

EC50 (E3 (CUL1)): 13 µM
EC50 (E3 (CUL4)): ~14 µM
EC50 (cancer cells): 5 µM
Compound: O=c1c(-c2cnn(-c3cccc(Cl)c3)c2)c(C(F)(F)F)oc2c(O)c(O)ccc12 [KH-3-151]

EC50 (E3 (CUL4)): ~10 µM
EC50 (cancer cells): 9 µM
Compound: O=c1c(-c2cnn(-c3ccc(Cl)c(Cl)c3)c2)c(C(F)(F)F)oc2c(O)c(O)ccc12 [KH-4-99]

EC50 (E3 (CUL1)): 3.9 µM
EC50 (E3 (CUL4)): > 10 µM
EC50 (cancer cells): 10 to 20 µM
Compound: Cc1cccc(Cn2cc(-c3c(C(F)(F)F)oc4c(O)c(O)ccc4c3=O)cn2)c1 [MSSM-RJD-MM-025, 7,8-dihydroxy-3-(1-(3-methylbenzyl)-1H-pyrazol-4-yl)-2-(trifluoromethyl)-4H-chromen-4-one]

EC50 (E3 (CUL1)): 3.8 µM
EC50 (E3 (CUL4)): > 10 µM
EC50 (cancer cells): > 20 µM
Compound: CCCCn1cc(-c2c(C(F)(F)F)oc3c(O)c(O)ccc3c2=O)cn1 [MSSM-RJD-MM-007, 3-(1-butyl-1H-pyrazol-4-yl)-7,8-dihydroxy-2-(trifluoromethyl)-4H-chromen-4-one]

EC50 (E3 (CUL1)): 7.2 µM
EC50 (E3 (CUL4)): > 30 µM
EC50 (cancer cells): > 20 µM
Compound: O=c1c(-c2cnn(Cc3ccc(F)cc3)c2)c(C(F)(F)F)oc2c(O)c(O)ccc12 [MSSM-RJD-MM-013, 3-(1-(4-fluorobenzyl)-1H-pyrazol-4-yl)-7,8-dihydroxy-2-(trifluoromethyl)-4H-chromen-4-one]

EC50 (E3 (CUL1)): 6 µM
EC50 (E3 (CUL4)): > 10 µM
EC50 (cancer cells): > 20 µM
Compound: CCn1cc(-c2c(C(F)(F)F)oc3c(O)c(O)ccc3c2=O)cn1 [MSSM-RJD-MM-009, 3-(1-ethyl-1H-pyrazol-4-yl)-7,8-dihydroxy-2-(trifluoromethyl)-4H-chromen-4-one]

EC50 (E3 (CUL1)): 8.4 µM
EC50 (E3 (CUL4)): > 10 µM
EC50 (cancer cells): 10 to 20 µM
Compound: O=c1c(-c2cnn(Cc3cccc(Cl)c3)c2)c(C(F)(F)F)oc2c(O)c(O)ccc12 [MSSM-RJD-MM-023, 3-(1-(3-chlorobenzyl)-1H-pyrazol-4-yl)-7,8-dihydroxy-2-(trifluoromethyl)-4H-chromen-4-one]

EC50 (E3 (CUL1)): 5 µM
EC50 (E3 (CUL4)): ~14 µM
EC50 (cancer cells): 9 µM
Compound: O=c1c(-c2cnn(-c3cccc(F)c3)c2)c(C(F)(F)F)oc2c(O)c(O)ccc12 [KH-4-41]

EC50 (E3 (CUL4)): > 14 µM
Compound: O=c1c(-c2cnn(-c3ccccc3)n2)c(C(F)(F)F)oc2c(O)c(O)ccc12 [KH-5-09]

EC50 (E3 (CUL4)): ~10 µM
EC50 (cancer cells): 9 µM
Compound: O=c1c(-c2cnn(-c3ccc(Cl)cc3Cl)c2)c(C(F)(F)F)oc2c(O)c(O)ccc12 [KH-4-98]

EC50 (E3 (CUL1)): 10 µM
E3 (CUL4) Inhibition EC50 (E3 (CUL4)): Inactive
Compound: NC(=O)c1ccccc1-n1cc(-c2c(C(F)(F)F)oc3c(O)c(O)ccc3c2=O)cn1 [KH-4-44]

EC50 (E3 (CUL1)): 9 µM
EC50 (E3 (CUL4)): > 14 µM
Compound: N#Cc1cccc(-n2cc(-c3c(C(F)(F)F)oc4c(O)c(O)ccc4c3=O)cn2)c1 [KH-4-66]
